The source of these data is patent US20130085146A1, “LIPID-DRUG FORMULATIONS AND METHODS FOR TARGETED DELIVERY OF LIPID-DRUG COMPLEXES TO LYMPHOID TISSUES” (priority 2003, published 2013).

Entries after “also recorded” stand apart in the source; their conditions may differ. Structures can show the parent of a compound that is named as a salt. Where two headings read alike, the source gives them in different places.

Data set [1] is described as follows: Degree of drug incorporation into lipid-drug complex (size-exclusion chromatography). Type of data set: physicochemical. The conditions noted are these: for incorporation into lipid-drug complexes (in words): neutral pH; for Degree of Lipid Association (% total): drug associated with lipid membranes, pH 7.4. As for the experimental part:
(§1) The mixture was rotor-evaporated under N2 and reduced pressure. Then it was resuspended in sterile phosphate-buffered saline (PBS, pH 7.4), to a final lipid concentration of 50 mM, and homogenized with a probe sonicator until a uniform particle size of about 50 nm to about 80 nm diameter was reached. Sonication is preferably done until sonicated unilamellar vesicles that are stable at their minimum diameter are obtained. […] The size and zeta potential (surface potential at hydrodynamic plane) of the lipid-drug complex was monitored using a Malvern Zetasizer 5000 operating at photon correlation spectroscopy mode and electrophoretic mode, respectively. […] The rest of the preparation procedure remains the same.
The degree of drug incorporation into the lipid-drug complex was determined by subjecting a small fraction of the preparation to size-exclusion chromatography using a Biogel A-0.5 M media (1×10 cm). […] By analyzing the amount of fraction in the lipid-associated complex, and free form with respect to the total amount loaded onto the column, the percentage of drug association was determined. (Lian, T. and Ho, R. J. Y., Recent trend and progress in liposome drug delivery systems; an invited minireview, J Pharm Sci 90:667-680 [2001]). To determine pH-dependent drug dissociation from the lipid-drug complex, the lipid-drug complex (originally prepared in pH 7.4 and free of unincorporated drug) can be incubated at, e.g., pH 7, 6, 5.5, 5, 4, 3.5 for 30 min. Subsequently, the mixture can be subjected to the degree of drug incorporation analysis described above. For animal studies, the drug-lipid complex formulations were further analyzed for sterility and endotoxin contamination. To ensure sterility and prevent underestimation of endotoxin that binds to lipids, the lipid-drug complex preparations were subjected to a blood agar culture test for 7 days at 37° C. for detection of microbial contamination.
Subsequently, the % lipid-association was determined by separating free from lipid-associated drug by size-exclusion column chromatography. Data expressed were means of duplicate preparations for indicated pH value.

The conditions of data set [2]: cited from earlier work.
Data set [3] can be described thus: Particle size of lipid-drug complex (photon correlation spectroscopy). It is filed as physicochemical. The conditions noted are these: drug associated with lipid membranes, pH 7.4. As to the method:
as §1

With `O=C(O)CN(CC(=O)O)Cc1cc2c(cc1O)Oc1cc(O)c(CN(CC(=O)O)CC(=O)O)cc1C21OC(=O)c2ccccc21` [calcein], the “incorporation into lipid-drug complexes (in words)” value in data set [1] was “completely or nearly completely”.

As to `C[C@H](Cn1cnc2c(N)ncnc21)OCP(=O)(O)O` [Tenofovir], the solubility in water result in data set [2] (neutral pH) was “soluble in water”; in data set [2] (neutral pH, listed as tenofovir), “quite soluble”. For the same molecule, the “incorporation into lipid-drug complexes (in words)” value is on record as “quite low efficiency” in data set [1] and “much lower efficiency” in data set [1] (listed as tenofovir).

For the molecule `Cc1cccc(C)c1OCC(=O)N[C@@H](Cc1ccccc1)[C@@H](O)C[C@H](Cc1ccccc1)NC(=O)[C@H](C(C)C)N1CCCNC1=O` [Lopinavir], the “% Associated with lipid-drug nanoparticles: Lopinavir” value in data set [1] (DSPC:mPE-DSPE formulation) was found to be 100 ± 0.9%.

As to `CC(C)(C)NC(=O)[C@@H]1C[C@@H]2CCCC[C@@H]2CN1C[C@@H](O)[C@H](Cc1ccccc1)NC(=O)[C@H](CC(N)=O)NC(=O)c1ccc2ccccc2n1` [Saquinavir, N-tert-butyl-decahydro-2-[2(R)-hydroxy-4-phenyl-3(S)-[[N-(2-quinolylcarbonyl)-L-asparaginyl]-amino]butyl]-(4aS,8aS)-isoquinoline-3 (S)-carboxamide], in data set [3], the “Size in Diameter” value is given as 159 ± 36 nm. Also, the “% Associated with lipid-drug nanoparticles: Saquinavir” value in data set [1] (DSPC:mPE-DSPE formulation) came to 98.9 ± 7.5%. Besides, in data set [1], the “Degree of Lipid Association (% total)” value stood at 98.8 ± 7.5 % total and the “incorporation into lipid-drug complexes (in words)” value is “incorporate nearly completely; also recorded: high degree of lipid association”.

Regarding `CC(C)OC(=O)OCOP(=O)(CO[C@H](C)Cn1cnc2c(N)ncnc21)OCOC(=O)OC(C)C.O=C(O)/C=C/C(=O)O` [Viread ®, 9-[(R)-2-[[bis[[(isopropoxycarbonyl)oxy]methoxy]phosphinyl]methoxy]propyl]adenine fumarate (1:1)], in data set [3], the “Size in Diameter” value is reported as 60 ± 10 nm. Besides, the “Degree of Lipid Association (% total)” value in data set [1] is reported as 4.2 ± 0.7 % total.

As to `Cc1c(O)cccc1C(=O)N[C@@H](CSc1ccccc1)[C@H](O)CN1C[C@H]2CCCC[C@H]2C[C@H]1C(=O)NC(C)(C)C` (relative stereo) [Nelfinavir, [3S-[2(2S*, 3S*), 3a,4ab,8ab]]-N-(1,1-dimethylethyl)decahydro-2-[2-hydroxy-3-[(3-hydroxy-2-methylbenzoyl)amino]-4-(phenylthio)butyl]-3-isoquinolinecarboxamide mono-methanesulfonate (salt)], the “solubility in methanol, ethanol, isopropanol and propylene glycol” value in data set [2] is “freely soluble”. In data set [2] (pH<4), the solubility in water result is “slightly soluble”. Also, the “Size in Diameter” value in data set [3] is 123 ± 16 nm. In addition, the “% Associated with lipid-drug nanoparticles: Nelfinavir” value in data set [1] (DSPC:mPE-DSPE formulation) is given as 100 ± 9.8%. Also, in data set [1], the “Degree of Lipid Association (% total)” value worked out at 100.5 ± 9.8 % total and the “incorporation into lipid-drug complexes (in words)” value is listed as “incorporate nearly completely; also recorded: high degree of lipid association”.

With `CC(C)c1nc(CN(C)C(=O)N[C@H](C(=O)N[C@@H](Cc2ccccc2)C[C@H](O)[C@H](Cc2ccccc2)NC(=O)OCc2cncs2)C(C)C)cs1` [Ritonavir], the “% Associated with lipid-drug nanoparticles: Ritonavir” value in data set [1] (DSPC:mPE-DSPE formulation) is listed as 100 ± 1.0%.
